Results as given in patent publication EP3858439A1 (priority 2020, dated 2021).
Counter-ions that a name gives are not always drawn.

molecular target: T1, human µ-opioid receptor (Homo sapiens, UniProt P35372); test: Binding assay to human µ-opioid receptor ([3H]-DAMGO displacement); conditions: not given
T1 construct: expressed in transfected cells; host or cells: CHO-K1
Description: Binding assay to human µ-opioid receptor
Transfected CHO-K1 cell membranes (20 µg) were incubated with [^3H]-DAMGO (1 nM) in assay buffer containing Tris-HCl 50 mM, MgCl2 5 mM at pH 7.4.
Plates were incubated at 27 °C for 60 min. After the incubation period, the reaction mixture was then transferred to MultiScreen HTS, FC plates (Millipore), filtered and plates were washed 3 times with ice-cold 10 mM Tris-HCl (pH 7.4).
Filters were dried and counted at approximately 40% efficiency in a MicroBeta scintillation counter (Perkin-Elmer) using EcoScint liquid scintillation cocktail.

T1 sequence (P35372 whole entry): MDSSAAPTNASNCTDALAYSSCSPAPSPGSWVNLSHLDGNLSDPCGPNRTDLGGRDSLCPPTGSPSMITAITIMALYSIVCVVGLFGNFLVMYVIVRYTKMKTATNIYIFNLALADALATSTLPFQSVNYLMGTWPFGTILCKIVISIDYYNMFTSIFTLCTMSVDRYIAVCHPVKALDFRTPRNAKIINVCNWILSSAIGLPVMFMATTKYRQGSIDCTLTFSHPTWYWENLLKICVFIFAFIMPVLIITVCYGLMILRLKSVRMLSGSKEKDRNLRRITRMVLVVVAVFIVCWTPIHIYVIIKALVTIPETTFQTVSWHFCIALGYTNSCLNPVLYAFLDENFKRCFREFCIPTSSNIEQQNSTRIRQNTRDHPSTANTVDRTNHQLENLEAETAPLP

| SMILES | Ki |
| --- | --- |
| CN(C)C1(c2ccccc2)CCN(C(=O)[C@@H](CN)[C@@H]2CCCc3ccccc32)CC1 (racemic) [Example 77, (RS)-3-Amino-1-(4-(dimethylamino)-4-phenylpiperidin-1-yl)-2-((SR)-1,2,3,4-tetrahydronaphthalen-1-yl)propan-1-one] | < 100 nM |
| CN(C)C1(c2ccccc2)CCN(C(=O)[C@@H](CN)[C@H]2CCCc3ccccc32)CC1 (racemic) [Example 78, (RS)-3-amino-1-(4-(dimethylamino)-4-phenylpiperidin-1-yl)-2-((RS)-1,2,3,4-tetrahydronaphthalen-1-yl)propan-1-one] | < 100 nM |
| CN(C)C1(c2ccccc2)CCN(C(=O)[C@H](CN)C(C)(C)c2ccccc2)CC1 [Example 5, (S)-2-(aminomethyl)-1-(4-(dimethylamino)-4-phenylpiperidin-1-yl)-3-methyl-3-phenylbutan-1-one] | < 100 nM |
| CNC1(c2ccccc2)CCN(C(=O)[C@H](CN)[C@@H](C)c2ccccc2)CC1 [Example 9, (2S,3R)-2-(aminomethyl)-1-(4-(methylamino)-4-phenylpiperidin-1-yl)-3-phenylbutan-1-one] | < 100 nM |
| CN(C)C1(c2ccccc2)CCN(C(=O)C(CN)Cc2ccccc2)CC1 (stereo not shown) [Example 28, 3-amino-2-benzyl-1-(4-(dimethylamino)-4-phenylpiperidin-1-yl)propan-1-one dihydrochloride] | < 100 nM |
| CCNCC(Cc1ccccc1)C(=O)N1CCC(c2ccccc2)(N(C)C)CC1 (stereo not shown) [Example 30, 2-benzyl-1-(4-(dimethylamino)-4-phenylpiperidin-1-yl)-3-(ethylamino)propan-1-one dihydrochloride] | < 100 nM |
| CNCCC(Cc1ccccc1)C(=O)N1CCC(c2ccccc2)(N(C)C)CC1 (stereo not shown) [Example 31, 2-benzyl-1-(4-(dimethylamino)-4-phenylpiperidin-1-yl)-4-(methylamino)butan-1-one dihydrochloride] | 100 to 500 nM |
| CNCC(Cc1ccccc1)C(=O)N1CCC(c2cccc(O)c2)(N(C)C)CC1 (stereo not shown) [Example 34, 2-benzyl-1-(4-(dimethylamino)-4-(3-hydroxyphenyl)piperidin-1-yl)-3-(methylamino)propan-1-one dihydrochloride] | < 100 nM |
| CNCC(Cc1ccccc1)C(=O)N1CCC(NC)(c2cccc(O)c2)CC1 (stereo not shown) [Example 44, 2-benzyl-1-(4-(3-hydroxyphenyl)-4-(methylamino)piperidin-1-yl)-3-(methylamino)propan-1-one dihydrochloride] | < 100 nM |
| CNCC(Cc1cccc(F)c1)C(=O)N1CCC(c2ccccc2)(N(C)C)CC1 (stereo not shown) [Example 52, 1-(4-(dimethylamino)-4-phenylpiperidin-1-yl)-2-(3-fluorobenzyl)-3-(methylamino) propan-1-one] | < 100 nM |
| CNCC(Cc1ccccc1C#N)C(=O)N1CCC(c2ccccc2)(N(C)C)CC1 (stereo not shown) [Example 55, 2-(3-(4-(dimethylamino)-4-phenylpiperidin-1-yl)-2-((methylamino)methyl)-3-oxopropyl)benzonitrile dihydrochloride] | 100 to 500 nM |

same assay, conditions: Table 2; transfected CHO-K1 cell membranes, [3H]-DAMGO 1 nM, 60 min at 27 °C; read-out: Binding µ

| SMILES | Ki |
| --- | --- |
| CNC[C@@H](C(=O)N1CCC(c2ccccc2)(N(C)C)CC1)[C@@H](C)c1ccccc1 [Example 1, (2S,3R)-1-(4-(Dimethylamino)-4-phenylpiperidin-1-yl)-2-((methylamino)methyl)-3-phenylbutan-1-one dihydrochloride] | < 100 nM |
| CNC[C@@H](C(=O)N1CCC(c2ccc(F)cc2)(N(C)C)CC1)[C@@H](C)c1ccccc1 [Example 2, (2S,3R)-1-(4-(dimethylamino)-4-(4-fluorophenyl)piperidin-1-yl)-2-((methylamino)methyl)-3-phenylbutan-1-one] | < 100 nM |
| CNC[C@@H](C(=O)N1CCC(c2cccc(F)c2)(N(C)C)CC1)[C@@H](C)c1ccccc1 [Example 3, (2S,3R)-1-(4-(dimethylamino)-4-(3-fluorophenyl)piperidin-1-yl)-2-((methylamino)methyl)-3-phenylbutan-1-one] | < 100 nM |
| CNC[C@@H](C(=O)N1CCC(NC)(c2ccccc2)CC1)[C@@H](C)c1ccccc1 [Example 4, (2S,3R)-1-(4-(methylamino)-4-phenylpiperidin-1-yl)-2-((methylamino)methyl)-3-phenylbutan-1-one] | 100 to 500 nM |
| CC[C@@H](c1ccccc1)[C@@H](CN)C(=O)N1CCC(NC)(c2ccccc2)CC1 [Example 6, (2S,3R)-2-(aminomethyl)-1-(4-(methylamino)-4-phenylpiperidin-1-yl)-3-phenylpentan-1-one dihydrochloride] | < 100 nM |
| C[C@@H](c1ccccc1)[C@@H](CN)C(=O)N1CCC(c2ccccc2)(N(C)C)CC1 [Example 7, (2S,3R)-2-(aminomethyl)-1-(4-(dimethylamino)-4-phenylpiperidin-1-yl)-3-phenylbutan-1-one dihydrochloride] | < 100 nM |
| CC[C@@H](c1ccccc1)[C@@H](CN)C(=O)N1CCC(c2ccccc2)(N(C)C)CC1 [Example 8, (2S,3R)-2-(aminomethyl)-1-(4-(dimethylamino)-4-phenylpiperidin-1-yl)-3-phenylpentan-1-one dihydrochloride] | < 100 nM |
| CC[C@@H](c1ccccc1)[C@@H](CN)C(=O)N1CC(c2ccccc2)(N(C)C)C1 [Example 10, (2S,3R)-2-(aminomethyl)-1-(3-(dimethylamino)-3-phenylazetidin-1-yl)-3-phenylpentan-1-one] | > 500 nM |
| CC[C@@H](c1cccc(F)c1)[C@@H](CN)C(=O)N1CCC(NC)(c2ccccc2)CC1 [Example 11, (2S,3R)-2-(aminomethyl)-3-(3-fluorophenyl)-1-(4-(methylamino)-4-phenylpiperidin-1-yl)pentan-1-one] | < 100 nM |
| CNC[C@@H](C(=O)N1CCC(c2ccc(OC)cc2)(N(C)C)CC1)[C@@H](C)c1ccccc1 [Example 12, (2S,3R)-1-(4-(dimethylamino)-4-(4-methoxyphenyl)piperidin-1-yl)-2-((methylamino)methyl)-3-phenylbutan-1-one] | < 100 nM |
| CC[C@@H](c1ccccc1)[C@@H](CNC)C(=O)N1CCC(c2ccccc2)(N(C)C)CC1 [Example 13, (2S,3R)-1-(4-(dimethylamino)-4-phenylpiperidin-1-yl)-2-((methylamino)methyl)-3-phenylpentan-1-one dihydrochloride] | < 100 nM |
| CNC[C@@H](C(=O)N1CCC(c2ccccc2)(N(C)C)CC1)[C@@H](C)c1ccccc1F [Example 14, (2S,3R)-1-(4-(dimethylamino)-4-phenylpiperidin-1-yl)-3-(2-fluorophenyl)-2-((methylamino)methyl)butan-1-one dihydrochloride] | 100 to 500 nM |
| CNC[C@@H](C(=O)N1CCC(c2ccccc2)(N(C)C)CC1)[C@@H](C)c1cccc(F)c1 [Example 15, (2S,3R)-1-(4-(dimethylamino)-4-phenylpiperidin-1-yl)-3-(3-fluorophenyl)-2-((methylamino)methyl)butan-1-one] | < 100 nM |
| CNC[C@@H](C(=O)N1CCC(c2cccc(O)c2)(N(C)C)CC1)[C@@H](C)c1ccccc1 [Example 16, (2S,3R)-1-(4-(dimethylamino)-4-(3-hydroxyphenyl)piperidin-1-yl)-2-((methylamino)methyl)-3-phenylbutan-1-one dihydrochloride] | < 100 nM |
| CC[C@@H](c1ccccc1)[C@@H](CNC)C(=O)N1CCC(NC)(c2ccccc2)CC1 [Example 17, (2S,3R)-1-(4-(methylamino)-4-phenylpiperidin-1-yl)-2-((methylamino)methyl)-3-phenylpentan-1-one dihydrochloride] | < 100 nM |
| CC[C@@H](c1ccccc1)[C@@H](CNC)C(=O)N1CC(c2ccccc2)(N(C)C)C1 [Example 19, (2S,3R)-1-(3-(dimethylamino)-3-phenylazetidin-1-yl)-2-((methylamino)methyl)-3-phenylpentan-1-one dihydrochloride] | > 500 nM |
| CC[C@@H](c1cccc(F)c1)[C@@H](CNC)C(=O)N1CCC(NC)(c2ccccc2)CC1 [Example 20, (2S,3R)-3-(3-fluorophenyl)-1-(4-(methylamino)-4-phenylpiperidin-1-yl)-2-((methylamino)methyl)pentan-1-one] | < 100 nM |
| CC[C@@H](c1cccc(F)c1)[C@@H](CNC)C(=O)N1CCC(c2ccccc2)(N(C)C)CC1 [Example 21, (2S,3R)-1-(4-(dimethylamino)-4-phenylpiperidin-1-yl)-3-(3-fluorophenyl)-2-((methylamino)methyl)pentan-1-one] | < 100 nM |
| CC[C@@H](c1ccccc1)[C@@H](CNC)C(=O)N1CCC(NC)(c2ccc(OC)cc2)CC1 [Example 22, (2S,3R)-1-(4-(4-methoxyphenyl)-4-(methylamino)piperidin-1-yl)-2-((methylamino)methyl)-3-phenylpentan-1-one dihydrochloride] | < 100 nM |
| CN(C)C1(c2cccc(O)c2)CCN(C(=O)C2NCCc3ccccc32)CC1 (stereo not shown) [Example 35, (4-(dimethylamino)-4-(3-hydroxyphenyl)piperidin-1-yl)(1,2,3,4-tetrahydroisoquinolin-1-yl)methanone dihydrochloride] | < 100 nM |
| CNCC(Cc1ccccc1)C(=O)N1CCC(c2cccc(OC)c2)(N(C)C)CC1 (stereo not shown) [Example 41, 2-benzyl-1-(4-(dimethylamino)-4-(3-methoxyphenyl)piperidin-1-yl)-3-(methylamino)propan-1-one dihydrochloride] | < 100 nM |
| C[C@H](N)[C@H](Cc1ccccc1)C(=O)N1CCC(c2ccccc2)(N(C)C)CC1 [Example 48, (2S,3S)-3-amino-2-benzyl-1-(4-(dimethylamino)-4-phenylpiperidin-1-yl)butan-1-one dihydrochloride] | < 100 nM |
| C[C@@H](N)[C@@H](Cc1ccccc1)C(=O)N1CCC(c2ccccc2)(N(C)C)CC1 [Example 49, (2R,3R)-3-amino-2-benzyl-1-(4-(dimethylamino)-4-phenylpiperidin-1-yl)butan-1-one dihydrochloride] | 100 to 500 nM |
